From patent publication US20080182806A1, “USE OF ACETYLATED OR ESTERIFICATED AZACYTIDINE, DECITABINE, OR OTHER NUCLEOSIDE ANALOGS AS ORAL AGENTS FOR THE TREATMENT OF TUMORS OR OTHER DYSPLASTIC SYNDROMES SENSITIVE TO HYPOMETHYLATING AGENTS” (Nevada Cancer Institute, priority 2007, published 2008)

Key:
[1] = Pharmacokinetics and metabolism of TAC in mice (plasma LC/MS/MS); type: in vivo; settings: female, C57/BL6, mouse
Procedure: The title product and its active metabolite azacytidine (ACT) were then subjected to LC/MS/MS analysis using the following protocol. Stock solutions were prepared by weighing out 5-10 mg of TAC which was dissolves in methanol to a final concentration of about 0.5 mg/ml. The solution was labeled as “TAC Stock.” 2-3 mg of ACT were then weighed and dissolved in methanol to a final concentration of about 0.2 mg/ml. The solution was labeled as “ACT Stock.” Finally, the TAC and ACT stocks were diluted to a concentration of about 50 μg/ml in methanol, and labeled as “ACT/TAC Stock.” All solutions were stored at −20° C. […]
Samples were then initially prepared as follows. A measured aliquot of the acetonitrile extracted plasma sample was removed and placed into a 10×75 mm disposable glass test tube, followed by evaporating liquid down to approximately 50 μl under nitrogen at 37° C., diluting with 1 ml 2% phosphoric acid, and vortexing for 10 seconds at 3,000 rpm.
The samples were then analyzed by the SPE, HPLC and MS/MS methods. […]
Individual concentration-time data were analyzed using noncompartmental methods using WinNonlin Professional (Pharsight, Mountain View, Calif.). […] The terminal rate constant (λz) is determined from the slope of the terminal phase of the plasma concentration-time curve using uniform weight. The terminal half-life (T1/2) was calculated as 0.693 divided by λz. […]

[2] = test system: myelodysplastic syndromes; settings: 75 mg/m^2 subcutaneously daily for 7 days every 4 weeks, cited from earlier work
[3] = test system: global DNA methylation; assay: Global DNA methylation in mouse tissues (Epigentek Methylamp Global DNA Methylation Quantification Kit); type: in vivo, mice; settings: for effect on global DNA methylation in the kidneys after 48 hours / reduction in global DNA methylation in the kidneys: 38 mg/kg TAC p.o. or 25 mg/kg ACT i.v.; for reduction in global DNA methylation in the kidneys: within 24 hours
Procedure: The pharmacodynamic effect of TAC and ACT was determined at 24 and 48 hours following drug administration after the female C57/BL6 mice were euthanized, their tissues rapidly harvested, snap-frozen in liquid nitrogen, and stored at −80° C. The effect on methylation was determined by using the Epigentek Methylamp™ Global DNA Methylation Quantification Kit. Isolated genomic DNA from mouse tissues 24 or 48 hours after treatment with 25 mg/kg ACT i.v. and 38 mg/kg TAC p.o., methylation status was determined using 100 ng of each gDNA sample.

[4] = test system: myelodysplastic syndromes; settings: 15 mg/m^2 intravenously over 4 hours three times a day for 3 days; cited from earlier work
[5] = test system: Lymphoid leukemia L1210; assay: Survival of leukemic BDF1 mice inoculated i.p. with L1210 cells; type: in vivo
Procedure: Lymphoid leukemia L1210 was carried in BDF1 mice by weekly i.p. passages. Ascites fluid was aspirated from a donor mouse and sampled, and an aliquot was carefully diluted and counted in a hemocytometer. The original suspension of cells was then diluted appropriately in […] medium to 1×10^6 cells/ml. and injected i.p. (1×10^5 cells/0.1 ml/mouse) into recipient BDF1 mice.
A daily oral administration injection of TAC (38 mg/kg) diluted in PBS was given to leukemic BDF1 mice by oral gavage starting 24 hours from the inoculation of L1210 cells for a total of 5 days. A group of untreated leukemic mice of the same strain, sex, age, and weight served as controls.

| SMILES | half-life ([1]; iv, 25 mg/kg, azacytidine administered i.v., mice plasma) | mean time to response [2] | response ([2]; higher-risk groups) | response rate ([2]; lower-risk patients with refractory anemia) | effect on global DNA methylation in the kidneys after 48 hours [3] | reduction in global DNA methylation in the kidneys [3] | overall response rate [4] | concentration at 4 h ([1]; plasma, by 4 hours after oral administration of 38 mg/kg TAC, read-out: TAC plasma concentration (below the limit of detection)) | median survival time ([5]; TAC 38 mg/kg daily by oral gavage for 5 days, starting 24 hours after L1210 inoculation) | increased lifespan ([5]; TAC 38 mg/kg daily oral for 5 days versus untreated control group) | further decrease in methylation in spleen compared to untreated tissue ([3]; spleen, later time point, oral TAC 38 mg/kg) |
| --- | --- | --- | --- | --- | --- | --- | --- | --- | --- | --- | --- |
| Nc1ncn([C@@H]2O[C@H](CO)[C@@H](O)[C@H]2O)c(=O)n1 [ACT, 4-amino-1-β-D-ribofuranosyl-1,3,5-triazin-2(1H)-one] | 4 to 5 h | six | 61% | 60% | subsided | 50% |  |  |  |  |  |
| Nc1ncn([C@H]2C[C@H](O)[C@@H](CO)O2)c(=O)n1 [decitabine, 4-amino-1-(2-deoxy-b-D-erythro-pentofuranosyl)-1,3,5-triazin-2(1H)-one] |  |  |  |  |  |  | 49% |  |  |  |  |
| CC(=O)OC[C@H]1O[C@@H](n2cnc(N)nc2=O)[C@H](OC(C)=O)[C@@H]1OC(C)=O [TAC, 2′,3′,5′-triacetyl-5-azacytidine] |  |  |  |  | subsided | 50% |  | < 30 ng/mL | 14 days | 55% | 40% |
